{"source": "patent US6342501B1", "about": "“Pyrrolo[2,3-d] pyrimidines as antiviral agents” (The Regents of the University of Michigan, priority 1994, dated 2002)", "key": {"[1]": {"tested_on": "human cytomegalovirus (HCMV)", "experiment": "microbe, parasite or virus in culture", "type": "cell-based, Towne strain", "settings": "for IC50: Human betaherpesvirus 5, HFF, read-out: HCMV; for antiviral activity against HCMV (in words): comment on Table 1 data", "protocol": "(§1) The routine growth and passage of KB and BSC-1 cells was performed in monolayer cultures using minimal essential medium (MEM) with either Hanks salts [MEM(H)] or Earle salts [MEM(E)] supplemented with 10% calf serum. The sodium bicarbonate concentration was varied to meet the buffering capacity required. Cultures of diploid human foreskin fibroblast (HFF) or MRC-5 cells were grown in medium consisting of MEM(E) with 10% fetal bovine serum. Cells were passaged at 1:2 to 1:10 dilutions according to conventional procedures by using 0.05% trypsin plus 0.02% EDTA in a HEPES buffered salt solution (HBS) [Shipman, C., Jr., Proc. Soc. […] HFF and MRC-5 cells were passaged only at 1:2 dilutions. The Towne strain, plaque-purified isolate Po, of HCMV was kindly provided by Dr. Mark Stinski, University of Iowa. The KOS strain of HSV-1 was used in most experiments and was provided by Dr. Sandra K. Weller, University of Conn.\nStock HCMV was prepared by infecting HFF cells at a multiplicity of infection (m.o.i.) of <0.01 plaque-forming units (p.f.u.) per cell. Cell growth medium was changed every four days until cytopathology was evident in all cells (approximately 21 days). Supernatant fluids were retained as the virus stock.\nVirus titers were determined using monolayer cultures of HFF cells for HCMV and monolayer cultures of BSC-1 cells for HSV-1 as described earlier [Prichard, M. N., et al., J. Virol. […] Briefly, HFF or BSC-1 cells were planted as described above in 96-well cluster dishes and incubated overnight at 37. degree. C. in a humidified 3% C02 -97% air atmosphere. The next day cultures were inoculated with HCMV or HSV-1 and serially diluted 1:3 across the remaining eleven columns of the 96-well plate. Cultures were incubated at 37. degree. C. for 2 hr to permit virus adsorption and then virus inoculum was replaced with 0.2 ml of fresh medium. Cultures were incubated for seven days for HCMV, two or three days for HSV-1, the medium was removed, and the cell sheets were stained with 0.1% crystal violet in 20% methanol.\nHFF cells in 24-well cluster dishes were infected with approximately 100 p.f.u. of HCMV per cm^2 cell sheet using the procedures detailed above. Following virus adsorption, compounds dissolved in growth medium were added to duplicate wells in four to eight selected concentrations. After incubation at 37° C. for 7 to 10 days, cell sheets were fixed, stained with crystal violet and microscopic plaques enumerated as described above.\nAfter virus adsorption, inoculum was replaced with 0.2 mL of fresh medium containing test compounds. The first row of 12 wells was left undisturbed and served as virus controls. Each well in the second row received an additional 0.1 mL of medium with test compound at three times the desired final concentration. The contents of the 12 wells were mixed by repeated pipetting and then serially diluted 1:3 along the remaining wells. In this manner, six compounds could be tested in duplicate on a single plate with concentrations from […]. Plates were incubated at 37° C. for seven days, subjected to one cycle of freezing and thawing; aliquots from each of the eight wells of a given column were transferred to the first column of a fresh 96-well monolayer culture of HFF cells. Contents were mixed and serially diluted 1:3 across the remaining eleven columns of the secondary plate. Each column of the original primary plate was diluted across a separate plate in this manner. Cultures were incubated, plaques were enumerated, and titers calculated as described above.\n(§2) Dose-response relationships were constructed by linearly regressing the percent inhibition of parameters derived in the preceding sections against logarithm 10 drug concentrations. […] Samples containing positive controls (acyclovir for HSV-1 and ganciclovir for HCMV) were used in all assays."}, "[2]": {"tested_on": "human foreskin fibroblasts (HFF cells)", "experiment": "Cytotoxicity in stationary HFF cells (microscopic inspection of plaque assay cells)", "type": "cell-based", "settings": "Table 1, cytotoxicity, stationary HFF cells, visual, read-out: HFF", "protocol": "(§3) Two different assays were used to explore cytotoxicity of selected compounds: (i) Cytotoxicity produced in stationary HFF cells was determined by microscopic inspection of cells used in plaque assays which were not affected by the virus [Turk, S. R., et al, Antimicrob.\nas §2"}, "[3]": {"tested_on": "KB cells", "experiment": "Cytotoxicity: KB cell growth (crystal violet staining)", "type": "cell-based", "settings": "Homo sapiens; Table 1; cytotoxicity, KB cell growth, 48 hours; read-out: KBgrv", "protocol": "as §3\nBriefly, 96-well cluster dishes were planted with KB cells at 3000-5000 cells per well. After overnight incubation at 37° C., test compound was added in quadruplicate at six to eight concentrations. Plates were incubated at 37° C for 48 hours in a CO2 incubator, rinsed, fixed with 95% ethanol, and stained with 0.1% crystal violet. Acidified ethanol was added and plates read at 570 nm in a spectrophotometer designed to read 96-well ELISA assay plates.\nas §2"}, "[4]": {"tested_on": "herpes simplex virus type 1 (HSV-1)", "experiment": "HSV-1 ELISA in BSC-1 cells", "type": "cell-based, KOS strain", "settings": "Human alphaherpesvirus 1, 72 h; Table 1; fifty-percent inhibitory concentration, ELISA, BSC-1 cells, 3-day incubation; read-out: HSV-1", "protocol": "as §1\nHigh titer HSV-1 stocks were prepared by infecting BSC cells at an m.o.i. of <0.1 as detailed previously [Turk, S. R., et al., Antimicrob.\nNinety-six-well cluster dishes were planted with 10,000 BSC-1 cells per well in 200 μL per well of MEM(E) plus 10% calf serum. After overnight incubation at 37° C., selected drug concentrations in quadruplicate and HSV-1 at a concentration of 100 p.f.u./well were added. Following a 3-day incubation at 37° C., medium was removed, plates were blocked, rinsed, and horse radish peroxidase conjugated rabbit anti-HSV-1 antibody was added. Following removal of the antibody containing solution, plates were rinsed, and then developed by adding 150 μL per well of a solution of tetramethylbenzidine as substrate. The reaction was stopped with H2SO4 and absorbance was read at 450 and 570 nm. Drug effects were calculated as a percentage of the reduction in absorbance in the presence of each drug concentration compared to absorbance obtained with virus in the absence of drug.\nas §2"}}}
{"smiles": "N#Cc1c(N)n(Cc2ccc(F)cc2)c2ncnc(N)c12", "note": "[Compound 1365, 4,6-diamino-7-(4-flourobenzyl)-pyrrolo[2,3-d]pyrimidine-5-carbonitrile]", "values": [{"measurement": "IC50", "setting": "[1]", "result": 0.3, "unit": "µM"}, {"measurement": "antiviral activity against HCMV (in words)", "setting": "[1]", "result": "good to excellent antiviral activity"}, {"measurement": "IC50", "setting": "[2]", "result": "> 100", "unit": "µM"}, {"measurement": "IC50", "setting": "[3]", "result": 60, "unit": "µM"}, {"measurement": "IC50", "setting": "[4]", "result": 33, "unit": "µM"}]}
{"smiles": "N#Cc1cn(CCc2ccccc2)c2ncnc(N)c12", "note": "[Compound 1368, 4-amino-7-(2-phenyl)ethyl-pyrrolo[2,3-d]pyrimidine-5-carbonitrile]", "values": [{"measurement": "IC50", "setting": "[1]", "result": 0.7, "unit": "µM"}, {"measurement": "antiviral activity against HCMV (in words)", "setting": "[1]", "result": "excellent activity"}, {"measurement": "IC50", "setting": "[2]", "result": 32, "unit": "µM"}, {"measurement": "IC50", "setting": "[3]", "result": "> 100", "unit": "µM"}, {"measurement": "IC50", "setting": "[4]", "result": 10, "unit": "µM"}]}
{"smiles": "N#Cc1c(N)n(CCc2ccccc2)c2ncnc(N)c12", "note": "[Compound 1369, 4,6-diamino-7-(2-phenyl)ethyl-pyrrolo[2,3-d]pyrimidine-5-carbonitrile]", "values": [{"measurement": "IC50", "setting": "[1]", "result": "< 0.1", "unit": "µM"}, {"measurement": "antiviral activity against HCMV (in words)", "setting": "[1]", "result": "excellent activity"}, {"measurement": "IC50", "setting": "[2]", "result": 100, "unit": "µM"}, {"measurement": "IC50", "setting": "[3]", "result": 82, "unit": "µM"}, {"measurement": "IC50", "setting": "[4]", "result": 0.3, "unit": "µM"}]}
{"smiles": "N#Cc1cn(CC=Cc2ccccc2)c2ncnc(N)c12", "note": "[Compound 1372, 4-amino-7-(3-phenyl)prop-2-enyl-pyrrolo[2,3-d]pyrimidine-5-carbonitrile]", "values": [{"measurement": "IC50", "setting": "[1]", "result": "> 10", "unit": "µM"}, {"measurement": "IC50", "setting": "[2]", "result": "> 10", "unit": "µM"}, {"measurement": "IC50", "setting": "[3]", "result": "> 100", "unit": "µM"}, {"measurement": "IC50", "setting": "[4]", "result": "> 100", "unit": "µM"}]}
{"smiles": "N#Cc1c(Br)n(Cc2ccc(Br)cc2)c2ncnc(N)c12", "note": "[Compound 1373, 4-amino-6-bromo-7-(4-bromobenzyl)-pyrrolo[2,3-d]pyrimidine-5-carbonitrile]", "values": [{"measurement": "IC50", "setting": "[1]", "result": 10.5, "unit": "µM"}, {"measurement": "IC50", "setting": "[2]", "result": 10.5, "unit": "µM"}, {"measurement": "IC50", "setting": "[3]", "result": "> 100", "unit": "µM"}, {"measurement": "IC50", "setting": "[4]", "result": "> 100", "unit": "µM"}]}
{"smiles": "N#Cc1c(Br)n(Cc2cccc([N+](=O)[O-])c2)c2ncnc(N)c12", "note": "[Compound 1374, 4-amino-6-bromo-7-(3-nitrobenzyl)-pyrrolo[2,3-d]pyrimidine-5-carbonitrile]", "values": [{"measurement": "IC50", "setting": "[1]", "result": "> 10", "unit": "µM"}, {"measurement": "IC50", "setting": "[2]", "result": "> 10", "unit": "µM"}, {"measurement": "IC50", "setting": "[3]", "result": "> 100", "unit": "µM"}, {"measurement": "IC50", "setting": "[4]", "result": "> 100", "unit": "µM"}]}
{"smiles": "NC(=O)c1cn(CCCc2ccccc2)c2ncnc(N)c12", "note": "[Compound 1376, 4-amino-7-(3-phenyl)propyl-pyrrolo[2,3-d]pyrimidine-5-carboxamide]", "values": [{"measurement": "IC50", "setting": "[1]", "result": 28, "unit": "µM"}, {"measurement": "IC50", "setting": "[2]", "result": 100, "unit": "µM"}, {"measurement": "IC50", "setting": "[3]", "result": 70, "unit": "µM"}, {"measurement": "IC50", "setting": "[4]", "result": 35, "unit": "µM"}]}
{"smiles": "N#Cc1cn(Cc2cccc([N+](=O)[O-])c2)c2ncnc(N)c12", "note": "[Compound 1382, 4-amino-7-(3-nitrobenzyl)-pyrrolo[2,3-d]pyrimidine-5-carbonitrile]", "values": [{"measurement": "IC50", "setting": "[1]", "result": "> 10", "unit": "µM"}, {"measurement": "IC50", "setting": "[2]", "result": "> 10", "unit": "µM"}, {"measurement": "IC50", "setting": "[3]", "result": "> 100", "unit": "µM"}, {"measurement": "IC50", "setting": "[4]", "result": "> 100", "unit": "µM"}]}
{"smiles": "N#Cc1c(Br)n(Cc2ccc(Cl)cc2)c2ncnc(N)c12", "note": "[Compound 1388, 4-amino-6-bromo-7-(4-chlorobenzyl)-pyrrolo[2,3-d]pyrimidine-5-carbonitrile]", "values": [{"measurement": "IC50", "setting": "[1]", "result": 116, "unit": "µM"}, {"measurement": "IC50", "setting": "[2]", "result": 116, "unit": "µM"}, {"measurement": "IC50", "setting": "[3]", "result": "> 100", "unit": "µM"}, {"measurement": "IC50", "setting": "[4]", "result": "> 100", "unit": "µM"}]}
{"smiles": "N#Cc1c(N)n(Cc2ccc(Br)cc2)c2ncnc(N)c12", "note": "[Compound 1389, 4,6-diamino-7-(4-bromobenzyl)-pyrrolo[2,3-d]pyrimidine-5-carbonitrile]", "values": [{"measurement": "IC50", "setting": "[1]", "result": 0.2, "unit": "µM"}, {"measurement": "antiviral activity against HCMV (in words)", "setting": "[1]", "result": "good to excellent antiviral activity"}, {"measurement": "IC50", "setting": "[2]", "result": "> 10", "unit": "µM"}, {"measurement": "IC50", "setting": "[3]", "result": 15, "unit": "µM"}, {"measurement": "IC50", "setting": "[4]", "result": "> 100", "unit": "µM"}]}
{"smiles": "NC(=O)c1cn(CCc2ccccc2)c2ncnc(N)c12", "note": "[Compound 1396, 4-amino-7-(2-phenyl)ethyl-pyrrolo[2,3-d]pyrimidine-5-carboxamide]", "values": [{"measurement": "IC50", "setting": "[1]", "result": 17, "unit": "µM"}, {"measurement": "IC50", "setting": "[2]", "result": "> 100", "unit": "µM"}, {"measurement": "IC50", "setting": "[3]", "result": 40, "unit": "µM"}, {"measurement": "IC50", "setting": "[4]", "result": 45, "unit": "µM"}]}
{"smiles": "NC(=O)c1c(Br)n(CCc2ccccc2)c2ncnc(N)c12", "note": "[Compound 1409, 4-amino-6-bromo-7-(2-phenyl)ethyl-pyrrolo[2,3-d]pyrimidine-5-carboxamide]", "values": [{"measurement": "IC50", "setting": "[1]", "result": 100, "unit": "µM"}, {"measurement": "antiviral activity against HCMV (in words)", "setting": "[1]", "result": "lost"}, {"measurement": "IC50", "setting": "[2]", "result": "> 100", "unit": "µM"}, {"measurement": "IC50", "setting": "[3]", "result": "> 100", "unit": "µM"}, {"measurement": "IC50", "setting": "[4]", "result": "> 100", "unit": "µM"}]}
